The values below come from ChEMBL document CHEMBL4811302, “Solid-phase synthesis of curcumin mimics and their anticancer activity against human pancreatic, prostate, and colorectal cancer cell lines” (Bioorg Med Chem, 2021).

Active and inactive are the calls of the source. The rule behind the calls is not given here.

For data set [1], the system named is PC-3. As to the kind of experiment: Antiproliferative activity against human PC-3 cells assessed as reduction in cell growth at 100 uM incubated for 72 hrs by trypan blue assay relative to control. In kind it is functional.
Data set [2] relates to PANC-1. Kind of data set: Antiproliferative activity against human PANC-1 cells assessed as reduction in cell growth at 100 uM incubated for 72 hrs by trypan blue assay relative to control. It counts as functional.
Data set [3] can be described thus: Stability of compound in alkaline phosphatase by HPLC analysis. It counts as ADME.
A short description of data set [4]: Stability of compound in simulated intestinal fluid assessed as parent compound remaining at pH 6.8 at 1 mM measured after 48 hrs by HPLC analysis. The settings on record: simulated gi fluid, pH 6.8, 48 h, 1000 µM. It counts as ADME.
A short description of data set [5]: Stability of compound in human serum assessed as parent compound remaining measured upto 96 hrs by HPLC analysis. It counts as ADME, cell-free.
Data set [6] concerns PC-3. As to the kind of experiment: Antiproliferative activity against human PC-3 cells assessed as cell death at 100 uM incubated for 72 hrs by trypan blue assay (reference value: 3%). It counts as functional.
Data set [7] concerns SW480. As to the kind of experiment: Antiproliferative activity against human SW480 cells assessed as reduction in cell growth at 100 uM incubated for 72 hrs by trypan blue assay relative to control. It counts as functional.
Data set [8] is described as follows: Stability of compound in simulated gastric fluid assessed as drug degradation at pH 1.2 at 1 mM measured after 48 hrs by HPLC analysis. It counts as ADME. The following applies: read-out: Drug degradation.
The subject of data set [9] is PANC-1. As to the kind of experiment: Antiproliferative activity against human PANC-1 cells assessed as cell death at 100 uM incubated for 72 hrs by trypan blue assay relative to control. It counts as functional, cell-based.
The subject of data set [10] is SW480. As to the kind of experiment: Antiproliferative activity against human SW480 cells assessed as cell death at 100 uM incubated for 72 hrs by trypan blue assay relative to control. In kind it is functional, cell-based.

On to `O=P([O-])(OCCc1ccc(O)cc1)OCCc1ccc(O)c(O)c1.[Na+]`, for which the inhibition result with PC-3 [1] and in the data set on SW480 [7] was “Active” in each case. Moreover, the inhibition result with PANC-1 [2] is “inactive”. In addition, the Stabilty result in [3], in data set [4] and in [5] was “Stable” throughout. The result in the data set with PC-3 [6] and in the data set on PANC-1 [9] was Active. Besides, the degraded at 48 h, 1000 µM in data set [8] is under 5%.

With `O=P([O-])(OCCc1ccc(O)cc1)OCCc1ccc(O)cc1.[Na+]`, the inhibition entry in the data set on PC-3 [1] and with SW480 [7] was “Active” in each case. Moreover, in the data set on PANC-1 [2], the inhibition result is “inactive”. Further, the Stabilty entry in data set [3], in [4] and in [5] was “Stable” throughout. Besides, the result in the data set on PC-3 [6] and with PANC-1 [9] was Active. Moreover, in [8], the degraded at 48 h, 1000 µM is under 5%.

Take `O=P([O-])(OCCc1ccc(O)c(O)c1)OCCc1ccc(O)c(O)c1.[Na+]`: the inhibition result in the data set with PC-3 [1] was “Active”. Moreover, the outcome in the data set on SW480 [10], with PC-3 [6] and in the data set on PANC-1 [9] was Active. Moreover, in the data set with PANC-1 [2], the inhibition result is “inactive”. The Stabilty entry in data set [3], in data set [4] and in [5] was “Stable” throughout. Besides, in the data set on SW480 [7], the inhibition at 100 µM was determined as 25%. In data set [8], the degraded at 48 h, 1000 µM is under 5%.

Consider `COc1cc(CCOP(=O)([O-])OCCc2ccc(O)c(OC)c2)ccc1O.[Na+]`, for which the inhibition entry with PC-3 [1] and in the data set on SW480 [7] was “Active” throughout. Also, the inhibition result in the data set with PANC-1 [2] is “inactive”. Besides, the Stabilty entry in [3], in [4] and in data set [5] was “Stable” each time. In addition, the outcome with PC-3 [6] and in the data set on PANC-1 [9] was Active. Also, the degraded at 48 h, 1000 µM in data set [8] is under 5%.

As to `OCCc1ccc(O)cc1` [TYROSOL], the values for the inhibition at 100 µM in the data set with PC-3 [1] and with SW480 [7] were 13% and 12%, respectively. In addition, the inhibition result in the data set on PANC-1 [2] was “inactive”. For the same molecule, in the data set on PC-3 [6], the Activity turned out to be 7%. Besides, the outcome with PANC-1 [9] was Active.

Consider `COc1cc(CCO)ccc1O`, for which the inhibition entry in the data set with PC-3 [1] and with PANC-1 [2] was “inactive” each time. The outcome with PC-3 [6] and with PANC-1 [9] was Active. In addition, the inhibition at 100 µM with SW480 [7] was determined as 12%.

In the case of `OCCc1ccc(O)c(O)c1` [HYDROXYTYROSOL], the inhibition at 100 µM in the data set with PC-3 [1] turned out to be 33%; in the data set on PANC-1 [2] it was 15%; in the data set with SW480 [7], 38%. Also, the result in the data set on PANC-1 [9] was Active.

Turning to `COc1cc(CCOP(=O)([O-])OCCc2ccc(O)cc2)ccc1O.[Na+]`, the inhibition at 100 µM in the data set with PC-3 [1] was 28%. Besides, in the data set on PANC-1 [2], the inhibition result was “inactive”. In addition, the Stabilty result in data set [3], in data set [4] and in data set [5] was “Stable” throughout. Besides, the Activity with PC-3 [6] is 23%. Besides, in the data set with SW480 [7], the inhibition result was “Active”. In data set [8], the degraded at 48 h, 1000 µM is under 5%. The result in the data set on PANC-1 [9] was Active.

For `COc1cc(CCOP(=O)([O-])OCCc2ccc(O)c(O)c2)ccc1O.[Na+]`, the inhibition result in the data set on PC-3 [1] was “Active”. Besides, the result in the data set with SW480 [10], in the data set on PC-3 [6] and with PANC-1 [9] was Active. In the data set with PANC-1 [2], the inhibition entry is “inactive”. Besides, the Stabilty result in data set [3], in data set [4] and in data set [5] was “Stable” each time. Moreover, the inhibition at 100 µM in the data set on SW480 [7] worked out at 15%. Besides, the degraded at 48 h, 1000 µM in [8] was under 5%.
